{
  "source": "patent US20230000797A1",
  "about": "“COMPOSITIONS AND METHODS FOR TREATING MOTOR DISORDERS” (ARIZONA BOARD OF REGENTS ON BEHALF OF THE UNIVERSITY OF …, priority 2015, published 2023)",
  "key": {"[1]": {"tested_on": "striatal DA content", "assay": "Electrochemical detection (HPLC-EC) of striatal DA content", "format": "in vivo, rat", "protocol": "Measurement of dopamine content: Coronal brain slices were collected and 2 mm steel biopsy punches were used to sample striatal tissue. Samples from left and right hemispheres were collected and immediately flash frozen on an aluminum pan at −70° C., as published (Flores et al., 2014). Samples massed at 2.5±0.5 mg and were then homogenized in dilute perchloric acid. High performance liquid chromatography with electrochemical detection (HPLC-EC) was used to quantify DA."}, "[2]": {"tested_on": "tyrosine hydroxylase (TH)", "assay": "Semi-quantitative western analysis of striatal tyrosine hydroxylase expression", "format": "in vivo, rat", "conditions": "unilateral lesion; TH normalized to β-actin; n=15", "protocol": "Western analysis of tyrosine hydroxylase (TH) content: After the tissue punch, described above, the remaining striata from left and right hemispheres were immediately flash frozen and stored at —70 ° C. Total protein was prepared and semi-quantitative western analysis was conducted as described (Flores et al., 2014; Yue et al., 2014) with 3 modifications. 30 μg of protein/sample was loaded and analyzed on the same blot. Secondary antibody dilution for β-actin: 1:10,000. Images were analyzed with the G:Box XR5 Chemi system (Syngene, Frederick, Md.) using GeneSys v. 1.4.0.0."}, "[3]": {"tested_on": "unilaterally 6-hydroxydopamine (6-OHDA)-lesioned PD rats", "assay": "Development of LID under once-weekly 10-hour infusion paradigm (LAO AIMs)", "format": "in vivo, rat", "conditions": "n=9 per group; for animals that did not develop any dyskinesia or only very subtle dyskinesia: 6 and 12 mg/kg L-DOPA periods", "protocol": "Unilaterally 6-hydroxydopamine (6-OHDA)-lesioned PD rats were injected daily with L-DOPA (days 0-13: 6 mg/kg; days 14-28: 12 mg/kg; i.p.) to induce dyskinesia and tested for limb, axial and oral (LAO) abnormal involuntary movements (AIMs) twice a week for 3 hours by blinded investigators."}, "[4]": {"tested_on": "patients with PD", "assay": "Low-dose ketamine infusion in PD patient case studies (retrospective chart review)", "format": "in vivo, human", "protocol": "We report on five cases of low-dose ketamine infusion in patients with PD identified by a retrospective chart review (Table 1). Ketamine was indicated for a variety of co-morbid conditions. The level of documentation of PD and LID symptoms pre and post-infusion was variable, but in many cases included standardized clinical rating scales collected by Movement Disorder specialists. […] Patients were treated in the intensive care unit using a protocol developed by one of the authors (ME) for treatment of intractable headache that specified titration of ketamine to a target rate of 0.15 mg/kg/hr for a 72 hr period."}, "[5]": {"tested_on": "awake and behaving naive rats", "assay": "Local-field activity recordings in motor cortex (M1) and dorsolateral striatum (DLS), naive rats", "format": "in vivo, rat", "conditions": "20 mg/kg, 5 i.p. injections every 2 hours", "protocol": "Using the 10-hour racemic ketamine paradigm (5 i.p. injections every 2 hours), simultaneous local-field activity in multiple brain structures in two awake and behaving naive rats was measured. Recordings were acquired from a 64 channel fixed electrode array. Average response across 2 animals and 5 sessions was obtained."}, "[6]": {"tested_on": "unilateral 6-hydroxydopamine (6-OHDA)-lesioned rats", "assay": "Local-field activity recordings in M1 and DLS, rodent Parkinson's disease model", "format": "in vivo, rat", "conditions": "20 mg/kg, 5 i.p. injections every 2 hours", "protocol": "Using a 10-hour racemic ketamine paradigm (5 i.p. injections every 2 hours), simultaneous measurement of local-field activity in multiple brain structures in three awake and behaving unilateral 6-hydroxydopamine (6-OHDA)-lesioned rats, a common model of Parkinson's disease. Recordings were acquired from a 64 channel fixed electrode array. Average response across 3 animals. Power spectrogram from a 10 hour session created by averaging spectra acquired. Vertical lines indicate ketamine injection times."}, "[7]": {"tested_on": "unilaterally 6-OHDA-lesioned LID rats", "assay": "L-DOPA-induced AIMs in the preclinical rat LID model (10 hr ketamine 'infusion' paradigm or acute injection)", "conditions": "cohort #1; for L-DOPA-induced contralateral locomotor behavior / ipsiversive turning behavior (worsening of the Parkinsonism): all tested doses; for L-DOPA-induced contralateral locomotor behavior: 10 hr 'infusion'; for ipsiversive turning behavior (worsening of the Parkinsonism): in the presence of L-DOPA"}, "[8]": {"conditions": "DLS and M1, after each injection"}},
  "note": "Entries after “also recorded” stand apart in the source; their conditions may differ.",
  "data": [
    {"smiles": "NCCc1cc(O)c(O)cc1O", "note": "[6-OHDA, 6-hydroxydopamine]", "values": [
      {"measurement": "reduction of striatal DA content in the lesioned side", "setting": "[1]; unilateral lesion, lesioned vs unlesioned side", "value": "> 95", "unit": "%"},
      {"measurement": "reduction of striatal TH expression in the lesioned side", "setting": "[2]", "value": 87, "unit": "%"}
    ]},
    {"smiles": "CN[C@@]1(c2ccccc2Cl)CCCCC1=O", "note": "[R-ketamine]", "values": [
      {"measurement": "animals that did not develop any dyskinesia or only very subtle dyskinesia", "setting": "[3]", "value": 1}
    ]},
    {"smiles": "CNC1(c2ccccc2Cl)CCCCC1=O", "note": "(racemic) [ketamine, (RS)-2-(2-Chlorophenyl)-2-(methylamino)cyclohexanone]", "values": [
      {"measurement": "UPDRS Dyskinesia score (sum of items 32-34)", "setting": "[4]; case #1, 72 hr low-dose ketamine infusion", "value": "reduced"},
      {"measurement": "dyskinesia", "setting": "[4]; case #1, at second infusion 3 years later despite increase in L-DOPA dose", "value": "free of dyskinesia"},
      {"measurement": "dyskinesia", "setting": "[4]; case #1, during and after the infusion, carbidopa/L-DOPA dosages unchanged", "value": "improved markedly"},
      {"measurement": "severe tremor", "setting": "[4]; case #1, during second infusion, tremor had returned 3 weeks later", "value": "resolved acutely"},
      {"measurement": "% dyskinesia on time", "setting": "[4]; case #1, patient diary, 72 hr low-dose ketamine infusion", "value": "reduced"},
      {"measurement": "LID", "setting": "[4]; case #1, weeks 2-4 post-K", "value": "completely resolved"},
      {"measurement": "dyskinesia", "setting": "[4]; case #2, low-dose ketamine infusion", "value": "dramatic reduction"},
      {"measurement": "depression", "setting": "[4]; case #3", "value": "dramatically improved"},
      {"measurement": "motor symptoms", "setting": "[4]; case #3, during the infusion", "value": "acutely improved"},
      {"measurement": "dyskinesia", "setting": "[4]; case #3, following the infusion", "value": "completely subsided"},
      {"measurement": "headache", "setting": "[4]; case #4", "value": "improved"},
      {"measurement": "effect on motor symptoms", "setting": "[4]; cases #4 and 5 (STN DBS-treated)", "value": "little effect"},
      {"measurement": "tolerability and safety", "setting": "[4]; five PD case reports overall", "value": "excellent tolerability and safety"},
      {"measurement": "striatal [DA]", "setting": "[1]; acute i.p. 20 mg/kg vs. saline, 30 min before euthanasia", "value": "unchanged"},
      {"measurement": "reduction of mean LAO AIMs scores", "setting": "[3]; 10-hours infusion paradigm once a week, daily L-DOPA 6 then 12 mg/kg i.p.", "value": 50, "unit": "%"},
      {"measurement": "animals that did not develop any dyskinesia or only very subtle dyskinesia", "setting": "[3]", "value": "4 of 9"},
      {"measurement": "coherence in the HFO frequency band", "setting": "[5]; M1-DLS", "value": "increased"},
      {"measurement": "high-frequency activity (120-140 Hz)", "setting": "[5]; M1 and DLS, after each injection", "value": "clear increase"},
      {"measurement": "correlation (r) of coherence in HFO and beta bands", "setting": "[5]; n=5 sessions", "value": "−0.65"},
      {"measurement": "coherence in the beta band", "setting": "[5]; with successive injections", "value": "decreased"},
      {"measurement": "gamma band activity (40-60 Hz)", "setting": "[6]; [8]", "value": "clear increase"},
      {"measurement": "high-frequency activity (120-140 Hz)", "setting": "[6]; [8]", "value": "clear increase"},
      {"measurement": "beta-gamma cross-frequency coupling (CFC) in the DLS", "setting": "[6]; following each injection, n=15 sessions across 3 animals", "value": "reduced"},
      {"measurement": "change in the already-reduced AIMs score", "setting": "[7]; 10 mg/kg ketamine-'infusion' given after the other treatments (test for sensitization)", "value": "No change"},
      {"measurement": "persistent reduction of AIMs scores lasted (post-injection)", "setting": "[7]; 20 mg/kg ketamine-'infusion'", "value": "at least 55 days"},
      {"measurement": "L-DOPA-induced contralateral locomotor behavior", "setting": "[7]", "value": "did not significantly change"},
      {"measurement": "L-DOPA-induced contralateral locomotor behavior", "setting": "[7]; listed as Ketamine", "value": "did not have a significant effect"},
      {"measurement": "ipsiversive turning behavior (worsening of the Parkinsonism)", "setting": "[7]", "value": "did not acutely induce"},
      {"measurement": "ipsiversive turning behavior (worsening of the Parkinsonism)", "setting": "[7]; listed as Ketamine", "value": "did not induce ipsilateral rotations"},
      {"measurement": "anti-dyskinetic effect (LID / AIMs)", "setting": "[7]; low-dose ketamine given for a 10 hr period, 5-20 mg/kg", "value": "dose-dependent long-term anti-dyskinetic effect; also recorded: Long-term dose-dependent reduction"},
      {"measurement": "LAO-AIMs score, pre-K (20 mg/kg) vs last testing session", "setting": "[7]; n=5, p<0.05", "value": "significantly reduced"}
    ]},
    {"smiles": "NC12CC3CC(CC(C3)C1)C2", "note": "[amantadine]", "values": [
      {"measurement": "LID", "setting": "[4]; case #2, prior treatment, 200 mg daily", "value": "failed to improve"}
    ]}
  ]
}
